Laboratory results from PubChem BioAssay (NCI).
Values joined by “and” are separate entries in the source; they are usually repeats but may differ in a detail not shown here. Identical values can stand only once.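 The compound was tested at five concentrations on cells cultured in 96-well plates, with a 48-hour exposure period. GI50 = concentration required for 50% inhibition of growth. TGI: concentration producing complete growth inhibition.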

test system: MDA-MB-468 breast; assay: NCI-60 cell line screen, 48 h

SMILES | GI50 | TGI
NC(=NCCCOc1ccc(Cl)cc1)Nc1ccc(C(F)(F)F)cc1 | 1.63 µM | 3.61 µM
NCCCNc1nc2ccccc2c2c(=O)c3cc(OC(F)(F)F)ccc3sc12 | 1.76 µM | 3.42 µM
O=c1n(CC2CO2)c(=O)n(CC2CO2)c(=O)n1CC1CO1 (stereo not drawn) | 2.26 µM | 11.3 µM
CC/C(=C(/c1ccc(OCCN(C)C)cc1)c1ccc(OC(=O)CCCCC(=O)c2c(C)[nH]c(/C=C3\N=C(c4ccc[nH]4)C=C3OC)c2C)cc1)c1ccccc1 | 2.47 µM | 14.7 µM
Cn1c(=O)c2c(nc(Nc3cc(=O)[nH]c(=O)[nH]3)n2Cc2ccccc2)n(C)c1=O | 54.8 µM | > 100 µM
CC(C)(C)C(=O)OCOP(=O)(OCOC(=O)C(C)(C)C)C1CCCN(O)C1=O (stereo not drawn) | 0.977 µM | 5.48 µM
COc1ccc(N(C)c2ncnc3occ(C)c23)cc1 | < 0.01 µM | 15.4 µM
COc1cc(Nc2cn[nH]c2-c2ccc(Cl)cc2)cc(OC)c1OC | 1.6 µM | 6.4 µM
CC(C)c1ccc(Nc2ccc3c(OCCCN4CCN(C)CC4)cccc3n2)cc1 | 12.3 µM | 26 µM
COCCOc1cc(F)c2c(Nc3ccc(NC(=O)Cn4cc(C(C)C)nn4)cc3)ncnc2c1 | 57.1 µM | > 100 µM
CNCCCn1cc(C2=C(c3cn(C)c4ccccc34)C(=O)NC2=O)c2ccccc21 | 3.59 µM | 7.33 µM
C=C(F)C(=O)N1CCN(c2nc(OC[C@@H]3CCCN3C)nc3c2CCN(c2cccc4cccc(Cl)c24)C3)C[C@@H]1CC#N | 1.22 µM | 2.58 µM
C#Cc1cccc(Nc2ncnc3cc(OC)c(OCCCCCCC(=O)NO)cc23)c1 | 0.00753 µM | 0.0814 µM
O=[N+]([O-])c1ccc(C=C2C(Cl)=C(Cl)C(Cl)=C2Cl)cc1 | 1.7 µM | 3.35 µM
Oc1ccc(Cl)cc1Cc1cc(Cl)cc(Cl)c1O | 2.79 µM | 9.41 µM
Cc1ccc(C(SCC(N)C(=O)O)(c2ccccc2)c2ccc(C)cc2)cc1 (stereo not drawn) | 0.118 µM | 0.533 µM
COc1ccc(C2CC(c3cccc(Nc4ccncc4)c3)=NN2c2cc(Cl)cc(Cl)c2)cc1 (stereo not drawn) | 1.63 µM | 3.29 µM
C/C(=C\CCc1ccoc1)CC/C=C(\C)CCCC1=CC(=O)OC1 | 2.19 µM | 8.41 µM
COC(=O)/C=C/c1cc(O)c2oc(-c3ccc(O)c(O)c3)c(C(=O)OC)c2c1 | 1.82 µM | 12.9 µM
O=C1NC(=Nc2ccccc2)S/C1=C\c1ccc2ncccc2c1 | 2.06 µM | > 25 µM
Clc1ccc2c(NCCCNc3nccc(Nc4ccc(Br)cc4)n3)ccnc2c1 | 1.61 µM | 3.21 µM
CCOc1nc(-c2ccccc2)cc2c(O)c(-c3nnco3)[nH]c(=O)c12 | 1.55 µM | > 25.8 µM

SMILES | GI50 | TGI
CCC[CH2][Sn]([CH2]CCC)([CH2]CCC)[O]C(=O)CC | 0.127 µM | 0.258 µM
CCN1CCN(c2ccc(Nc3cc(N(C)C(=O)Nc4c(Cl)c(OC)cc(OC)c4Cl)ncn3)cc2)CC1 | 3.01 µM | 11.7 µM
C[C@H]1c2cccc(O)c2C(O)=C2C(=O)[C@]3(O)C(O)=C(C(N)=O)C(=O)[C@@H](N(C)C)[C@@H]3[C@@H](O)[C@@H]21 | 2.05 µM | 6.44 µM
COc1ccc(C(=O)c2cc(OC)c(C)c(OC)c2)cc1OC(=O)CCl | 2.39 µM | 21.6 µM
CC[C@]12C=CCN3CC[C@@]4(c5ccc(OC)cc5N(C)[C@H]4[C@@](O)(C(=O)OC)[C@@H]1OC(=O)CCC[P+](c1ccccc1)(c1ccccc1)c1ccccc1)[C@@H]32 | 0.123 µM and 0.217 µM | 0.377 µM and 0.653 µM
O=C(Nc1ccc(OS(=O)(=O)c2ccccc2)cc1)C12CC3CC(CC(C3)C1)C2 | 3.8 µM | > 100 µM
O=C(OCc1ccc2cccc(O)c2n1)N1CCN(C(=O)c2cc3cc(F)ccc3[nH]2)CC1 | 1.51 µM | 3.28 µM
COc1cc(C2c3cc4c(cc3OC(N3CCCC3)C2C)OCO4)cc(OC)c1O (stereo not drawn) | 17.5 µM | > 100 µM
Ic1ccc(Nc2nc3nonc3nc2Nc2ccc(I)cc2)cc1 | 0.174 µM | 1.69 µM
COc1ccc2c(c1)C(C)Cc1c(Cl)ncnc1N2C (stereo not drawn) | 0.276 µM | 0.804 µM
Cn1cc(C2=C(c3ccc4ccccc4c3)C(=O)NC2=O)c2ccccc21 | 6.24 µM | > 25 µM
O=S(=O)(Nc1cc(F)cc(Cl)c1)c1ccc(-c2cnc(C3CC3)o2)cc1 | 0.491 µM | 6.78 µM
Cc1ccc2c(n1)C(=O)c1[nH]c3ccccc3c1C2=O | 0.51 µM | 3.3 µM
COc1cc2c(cc1OC)C(Sc1ccc(C)cc1)c1c(nc(N)c(C#N)c1N)O2 (stereo not drawn) | 1.16 µM | 2.5 µM
COc1cc(C(=O)c2cc(C)c3[nH]c4ccc(Cl)cc4c3c2C)cc(OC)c1OC | 0.0385 µM | 4.84 µM
C=C(C=O)C1CCC2(C(=O)O)CCC3(C)C(CCC4C5(C)CCC(O)C(C)(C)C5CCC43C)C12 (stereo not drawn) | 3.27 µM | 20.6 µM
Cc1nc(N)sc1-c1ccnc(Nc2ccc(N3CCOCC3)cc2)n1 | 0.611 µM | > 100 µM
COc1ncnc(C2CC2)c1-c1ncc2cnn(Cc3ccc(-c4nc(C(F)(F)F)cn4C(C)C)cc3)c2n1 | 3.77 µM | 38.3 µM
Cc1c2cccnc2c(C)c2c1c1cc(CO)ccc1n2C | 0.183 µM | 0.561 µM
CC1OC2CC(=O)OC2C2=C1C(=O)c1c(O)cccc1C2=O (stereo not drawn) | 0.0208 µM | 0.0525 µM
CC(SC(C)C(=O)N/N=C/c1cccc(Cl)c1)C(=O)N/N=C\c1cccc(Cl)c1 (stereo not drawn) | 21.7 µM | 52.9 µM
C=C(C)[C@@]12OC3(/C=C/C=C/CCCCC)O[C@@H]1[C@@H]1[C@@H]4O[C@]4(CO)[C@@H](O)[C@]4(O)C(=O)C(C)=C[C@H]4[C@@]1(O3)[C@H](C)[C@H]2OC(=O)c1ccccc1 | 1.37 µM | 2.92 µM
